From patent publication EP3748362A1, “IN VITRO METHOD FOR DETECTING RENAL DISEASE” (Fundacion Instituto De Investigacion Sanitaria Fundacion …, priority 2019, dated 2020)
Entries after “also recorded” stand apart in the source; their conditions may differ.

Experiments:
TRAF3 = TRAF3 western blot in TWEAK-stimulated PBMCs from healthy donors; format: cell-based, Human; conditions: paricalcitol 15 umol/L 48 hours before TWEAK 100 ng/ml for 24 hours
[1] = system: renal inflammation induced by folic acid; assay: Renal inflammatory cell infiltration, folic acid-induced renal injury in mice; format: in vivo; conditions: folic acid 300 mg/kg model; paricalcitol 25 µg/kg/day i.p.; anti-F4/80 and anti-CD3 immunohistochemistry
Description: (§1) All animal procedures were performed according to the guidelines of animal research in the European Community and with prior approval by the Ethics Committee of the Health Research of the IIS-Fundacion Jiménez Díaz. For in vivo studies, mice received a daily intraperitoneal injection of the VDRA Paricalcitol starting 48 hours prior to induction of kidney damage.
At the time of sacrifice, animals were anesthetized with 5 mg/kg xylazine (Rompun, Bayer AG) and 35 mg/kg ketamine (Ketolar, Pfizer) and the kidneys perfused in situ with cold saline before removal. Then, kidney portions were fixed in formalin buffer for immunohistochemistry studies or immediately frozen in liquid nitrogen for gene and protein studies.
Folic acid nephropathy is a classical model of kidney tubulointerstitial injury and inflammation that has been reported in humans. Mice received a single intraperitoneal injection of folic acid (Sigma) 300 mg/kg in 0.3 mol/l sodium bicarbonate or vehicle, and were sacrificed 48 hours later. […]
(§2) Paraffin-embedded kidney sections (3 µm) were stained using conventional methods. […] For each sample (processed by duplicate in a blinded manner), the average value was obtained from the analysis of 4 fields (20X objective) as density/mm2 or percentage stained area vs total analyzed area. Data are expressed as fold increase over control mice, as mean ± SEM of 8-10 animals per group. […]

NF-κB2 [2] = assay: Non-canonical NF-κB2 activation and dependent cytokines, folic acid-induced renal injury in mice; format: in vivo; conditions: folic acid 300 mg/kg model; paricalcitol 25 µg/kg/day i.p.
Description: as §1
At the time of sacrifice, animals were anesthetized with 5 mg/kg xylazine (Rompun, Bayer AG) and 35 mg/kg ketamine (Ketolar, Pfizer) and the kidneys perfused in situ with cold saline before removal. Then, kidney portions were fixed in formalin buffer for immunohistochemistry studies or immediately frozen in liquid nitrogen for gene and protein studies. […]
as §2
(§3) For western blot, cell (25 µg/lane) and kidney (100-150 µg/lane) protein extracts were separated on 6%-12% polyacrylamide-SDS gels under reducing conditions. […] Autoradiographs were scanned using the Gel Doc™ EZ imager and analyzed with the Image Lab 3.0 software (BioRad). […]

NF-κB2 [3] = assay: NF-κB2 activation (p52 western blot) in MARSS gene silenced HK2 cells stimulated with TWEAK; format: cell-based, Human; conditions: paricalcitol 15 µmol/L 48 hours, TWEAK 100 ng/ml
Description: Human kidney proximal tubule epithelial cells (HK2 cell line, ATCC CRL-2190) were grown in RPMI 1640 with 10% fetal bovine serum (FBS), 1% glutamine, 100 U/ml penicillin, 100 µg/ml streptomycin, 5 µg/ml insulin-transferrin-selenite and 36 ng/ml hydrocortisone in 5% CO2 at 37° C. When cells reached 60 to 70% confluence, they were serum-depleted for 24 hours before the experiment.
Cells were stimulated with 100ng/ml recombinant human soluble TWEAK (Millipore) or p-200 µg/ml cresyl-sulfate (Raymond Vanholder and Griet Glorieux, University of Gent, Belgium). Concentrations of TWEAK and p-cresyl-sulfate were based on previously published dose-response experiments (Poveda et al. 2014; Sanz et al. 2008). […] DMSO, used as a solvent in some cases, had no effect on cell viability or on gene expression levels.
as §3

SMILES: C[C@H](/C=C/[C@H](C)C(C)(C)O)[C@H]1CC[C@H]2/C(=C/C=C3C[C@@H](O)C[C@H](O)C3)CCC[C@]12C [paricalcitol]
- TWEAK-induced TRAF3 degradation (TRAF3): inhibited
- renal inflammatory cell infiltration [1]: prevented
- NF-κB2 activation, as determined by RelB and p52 levels, nuclear translocation and RelB DNA-binding activity (NF-κB2 [2]): decreased; also recorded: blocked
- gene and protein expression of NF-κB2-dependent cytokines, such as CCL21A, as well as other pro-inflammatory factors (NF-κB2 [2]): blocked
- TWEAK-induced NF-κB2 activation (NF-κB2 [3]): diminished
